This is an account of results in patent publication US20210030718A1, “COMBINATIONS FOR TREATING CANCER” (ASTRAZENECA AB, priority 2018, published 2021).

Bounds are passed on as bounds.

One test deals with cleaved caspase-3. Description: Western blot time course of cleaved caspase-3 in OCILy10 and TMD8. Conditions: 1 μM AZD5991 for 8 hr, alone or after 24-hour pre-treatment with 100 nM acalabrutinib. The test is classed as cell-based. How it is done:
Two BTK inhibitor-sensitive ABC-DLBCL cell lines (OCILy10 and TMD8) were treated for an 8-hour time course with either 1 μM AZD5991 alone or following a 24-hour pre-treatment with 100 nM acalabrutinib (since exposure for 24 hours was sufficient to induce maximal BH3-only protein levels). Cells were harvested for protein lysates at varying time points (0, 0.5, 1, 2, 4, and 8 hours) post-AZD5991 treatment, normalized for protein concentration using the BCA Protein Assay Kit, and run for western blots according to standard protocols. To ensure expected target engagement of acalabrutinib, the blots were probed for the proximal biomarker for activated BTK (pBTK Y223). To gauge the time to induction of apoptosis, cleaved caspase-3 was also assessed. A loading control (vinculin) was also utilized for normalization.
For orientation: In western blotting, separated proteins are transferred to a membrane and probed.

Another test relates to OCILy10 tumor cells. Description: OCILy10 subcutaneous tumor model, efficacy study. The following applies: OCILy10 s.c. in C.B.-17 SCID mice; acalabrutinib 12.5 mg/kg po bid; AZD5991 IV once weekly. The class given is in vivo, C.B.-17 SCID female mice. How it is done: 5×10^6 OCILy10 tumor cells were injected subcutaneously in the right flank of C.B.-17 SCID female mice in a volume of 0.1 mL containing 50% matrigel. Tumor volumes (measured by caliper), animal body weight, and tumor condition were recorded twice weekly for the duration of the studies. The tumor volume was calculated using the formula: length (mm)×width (mm)^2×0.52. For efficacy studies, growth inhibition from the start of treatment was assessed by comparison of the differences in tumor volume between control and treated groups. Dosing began when mean tumor size reached approximately 150-180 mm^3. CR=complete response. AZD5991 was formulated in 30% HPBCD (hydroxypropyl beta-cyclodextrin) in water for injection and adjusted to pH 9.0 up to a concentration of 30 mg/mL. AZD5991 was dosed IV once weekly. Acalabrutinib was formulated in 0.5% hydroxypropyl methyl cellulose/0.2% Tween 80, and dosed twice a day (bid) on an 8/16 hr split as an oral (po) administration at a volume of 10 mL/kg at a dose of 12.5 mg/kg.

A further test has as its system Bim and Bmf. In words: Western blot of BH3-only protein levels in DLBCL cell lines. The class given is cell-based. The following applies: 100 nM for 24 hours; OCILy10 and TMD8 relative to the insensitive cell line Karpas422. How it is done:
OCILy10, TMD8, and Karpas422 were treated with either vehicle or 100 nM acalabrutinib for 2-72 hours. Protein lysates were harvested at multiple time points in that interval, protein concentration was determined using the BCA Protein Assay Kit, and western blots were performed according to standard protocol to assess the effects on Bcl2 family protein levels. Each sample was normalized to vinculin as a loading control, and then protein levels of acalabrutinib-treated samples were calculated relative to those of vehicle-treated samples.
Each of the three cell lines were then treated with 100 nM acalabrutinib for 24 hours, and BH3-only protein levels were assessed. The levels of pro-apoptotic BH3-only proteins Bim and Bmf were increased in the two acalabrutinib-sensitive DLBCL cell lines relative to the insensitive cell line, priming the cells for apoptosis (FIG. 1). Acalabrutinib increases protein levels of pro-apoptotic proteins, including Bim and Bmf, in BTK inhibitor-sensitive DLBCL cell lines that leads to priming of cells for apoptosis. The results of Example 1 illustrate that diffuse large B-cell […] (DLBCL) cell lines display a differential sensitivity to acalabrutinib.

A further test relates to TMD8. Description: CellTiter-Glo viability, 72 hours. The test is classed as cell-based. The following applies: Homo sapiens, TMD8, ABC-DLBCL. As to the method:
(§1) Two ABC-DLBCL (OCILy10 and TMD8) cell lines and one GCB-DLBCL (Karpas422) cell line were treated with either vehicle (DMSO) or a 10-point, ½ log serially dilution of acalabrutinib for 72 hours with a CellTiter-Glo viability readout.
Background: In ATP-based viability assays light output follows the ATP content of the culture.

The subject of another test is Karpas422. In words: CellTiter-Glo viability, 72 hours. The class given is cell-based. Conditions: Homo sapiens, KARPAS-422, Karpas422, GCB-DLBCL. As to the method:
as §1

A further test concerns OCILy10. In words: CellTiter-Glo viability, 72 hours. The following applies: Homo sapiens, OCI-Ly10, OCILy10, ABC-DLBCL. The test is classed as cell-based. As to the method:
as §1

Regarding `Cc1c2c(nn1C)CSCc1cc(n(C)n1)CSc1cc(c3ccccc3c1)OCCCc1c(C(=O)O)n(C)c3c-2c(Cl)ccc13` (atropisomer, axis not shown; (Ra)) [AZD5991, (Ra)-17-chloro-5,13,14,22-tetramethyl-28-oxa-2,9-dithia-5,6,12,13,22-pentaazaheptacyclo[27.7.1.1^4,7.0^11,15.0^16,21.0^20,24.0^30,35]octatriaconta-1(37),4(38),6,11,14,16,18,20,23,29,31,33,35-tridecaene-23-carboxylic acid], the “induction of cleaved caspase” value in the test on cleaved caspase-3 is “no positive caspase activation”. The compound further yielded a tumor growth inhibition in the test with OCILy10 tumor cells of 44%.

Regarding `CC#CC(=O)N1CCC[C@H]1c1nc(-c2ccc(C(=O)Nc3ccccn3)cc2)c2c(N)nccn12` [acalabrutinib, (S)-4-(8-amino-3-(1-but-2-ynoylpyrrolidin-2-yl)imidazo[1,5-a]pyrazin-1-yl)-N-(pyridin-2-yl)benzamide], in the test with Bim and Bmf, the “levels of pro-apoptotic BH3-only proteins Bim and Bmf” value is recorded as “increased”. This compound showed a tumor growth inhibition with OCILy10 tumor cells of 79%. Also, the GI50 (commonly the concentration that inhibits growth by half) with TMD8 was 60 nM; in the test on Karpas422 it was greater than 31 µM; in the test on OCILy10, 10 nM.
